Test system: CD8+ T cells
Test: In vitro immunogenicity of HLA-A*02 peptides (CD8+ T-cell priming with aAPCs, multimer staining)
Assay type: cell-based, human
From the text: In order to obtain information regarding the immunogenicity of the TUMAPs of the present invention, the inventors performed investigations using an in vitro T-cell priming assay based on repeated stimulations of CD8+ T cells with artificial antigen presenting cells (aAPCs) loaded with peptide/MHC complexes and anti-CD28 antibody.
In order to perform in vitro stimulations by artificial antigen presenting cells loaded with peptide-MHC complex (pMHC) and anti-CD28 antibody, the inventors first isolated CD8+ T cells from fresh HLA-A*02 leukapheresis products via positive selection using CD8 microbeads (Miltenyi Biotec, Bergisch-Gladbach, Germany) of healthy donors obtained from the University clinics Mannheim, Germany, after informed consent.
PBMCs and isolated CD8+ lymphocytes were incubated in T-cell medium (TCM) until use consisting of RPMI-Glutamax (Invitrogen, Karlsruhe, Germany) supplemented with 10% heat inactivated human AB serum (PAN-Biotech, Aidenbach, Germany), 100 U/ml Penicillin/100 μg/ml Streptomycin (Cambrex, Cologne, Germany), 1 mM sodium pyruvate (CC Pro, Oberdorla, Germany), 20 μg/ml Gentamycin (Cambrex). 2.5 ng/ml IL-7 (PromoCell, Heidelberg, Germany) and 10 U/ml IL-2 (Novartis Pharma, Nurnberg, Germany) were also added to the TCM at this step.
Generation of pMHC/anti-CD28 coated beads, T-cell stimulations and readout was performed in a highly defined in vitro system using four different pMHC molecules per stimulation condition and 8 different pMHC molecules per readout condition.
The purified co-stimulatory mouse IgG2a anti human CD28 Ab 9.3 (Jung et al., 1987) was chemically biotinylated using Sulfo-N-hydroxysuccinimidobiotin as recommended by the manufacturer (Perbio, Bonn, Germany). Beads used were 5.6 μm diameter streptavidin coated polystyrene particles (Bangs Laboratories, Illinois, USA).
800.000 beads/200 μl were coated in 96-well plates in the presence of 4×12.5 ng different biotin-pMHC, washed and 600 ng biotin anti-CD28 were added subsequently in a volume of 200 μl. Stimulations were initiated in 96-well plates by co-incubating 1×10^6 CD8+ T cells with 2×10^5 washed coated beads in 200 μl TCM supplemented with 5 ng/ml IL-12 (PromoCell) for 3 days at 37° C. Half of the medium was then exchanged by fresh TCM supplemented with 80 U/ml IL-2 and incubating was continued for 4 days at 37° C. This stimulation cycle was performed for a total of three times. For the pMHC multimer readout using 8 different pMHC molecules per condition, a two-dimensional combinatorial coding approach was used as previously described (Andersen et al., 2012) with minor modifications encompassing coupling to 5 different fluorochromes. Finally, multimeric analyses were performed by staining the cells with Live/dead near IR dye (Invitrogen, Karlsruhe, Germany), CD8-FITC antibody clone SK1 (BD, Heidelberg, Germany) and fluorescent pMHC multimers. For analysis, a BD LSRII SORP cytometer equipped with appropriate lasers and filters was used. Peptide specific cells were calculated as percentage of total CD8+ cells. Evaluation of multimeric analysis was done using the FlowJo software (Tree Star, Oregon, USA). In vitro priming of specific multimer+CD8+ lymphocytes was detected by comparing to negative control stimulations.

Substance | in vitro immunogenicity: donors | in vitro immunogenicity: wells
YLNVQVKEL (listed as Homo sapiens) [SEQ ID No. 11] | ++++ (>= 70% = ++++) | + (<20% = +)
RLLDSVSRL (listed as Homo sapiens) [SEQ ID No. 121] | ++++ (>= 70% = ++++) | ++ (20%-49% = ++)
ABCA13-002 (ALDENLHQL) | +++ (50%-69% = +++) | + (<20% = +)
ALLNILSEV (listed as Homo sapiens) [SEQ ID No. 8] | ++++ (>= 70% = ++++) | ++ (20%-49% = ++)
SMYD3-001 (SLIEDLILL; listed as Homo sapiens) | ++ (20%-49% = ++) | + (<20% = +)
CSNK2A2-001 (VLSSGLTAA; listed as Homo sapiens) | + (<20% = +) | + (<20% = +)
COL6A3-007 (FLYDVVKSL; listed as Homo sapiens) | ++++ (>= 70% = ++++) | + (<20% = +)
IVDRTTTVV (listed as Homo sapiens) [SEQ ID No. 12] | ++++ (>= 70% = ++++) | ++++ (>= 70% = ++++)
SNRNP20-001 (GLIEIISNA; listed as Homo sapiens) | ++++ (>= 70% = ++++) | ++ (20%-49% = ++)
TLFPVRLLV (listed as Homo sapiens) [SEQ ID No. 97] | ++++ (>= 70% = ++++) | +++ (50%-69% = +++)
KIQEILTQV (listed as Homo sapiens) [SEQ ID No. 120] | ++++ (>= 70% = ++++) | + (<20% = +)
LIQDRVAEV (listed as Homo sapiens) [SEQ ID No. 14] | ++++ (>= 70% = ++++) | + (<20% = +)
AIVDKVPSV (listed as Homo sapiens) [SEQ ID No. 143] | +++ (50%-69% = +++) | + (<20% = +)
SERPINB3-001 (KLFGEKTYL) | +++ (50%-69% = +++) | + (<20% = +)
ABCA13-001 (ILFEINPKL) | ++++ (>= 70% = ++++) | + (<20% = +)
KIIGIMEEV (listed as Homo sapiens) [SEQ ID No. 95] | ++++ (>= 70% = ++++) | ++++ (>= 70% = ++++)
FLFDGSANL (listed as Homo sapiens) [SEQ ID No. 13] | ++ (20%-49% = ++) | + (<20% = +)
VLTSDSPAL (listed as Homo sapiens) [SEQ ID No. 19] | ++++ (>= 70% = ++++) | + (<20% = +)
ALTSTLISV (listed as Homo sapiens) [SEQ ID No. 5] | ++++ (>= 70% = ++++) | + (<20% = +)

Substance | in vitro immunogenicity: donors | in vitro immunogenicity: wells
MXRA5-002 (GLTDNIHLV; listed as Homo sapiens) | ++++ (>= 70% = ++++) | + (<20% = +)
MCM5-001 (ALSGTLSGV; listed as Homo sapiens) | ++++ (>= 70% = ++++) | + (<20% = +)
DUSP4-001 (FVFSFPVSV; listed as Homo sapiens) | ++++ (>= 70% = ++++) | ++ (20%-49% = ++)
TNC-001 (AMTQLLAGV; listed as Homo sapiens) | ++ (20%-49% = ++) | + (<20% = +)
COL6A3-010 (KLLPYIVGV; listed as Homo sapiens) | ++++ (>= 70% = ++++) | ++ (20%-49% = ++)
IVAESLQQV (listed as Homo sapiens) [SEQ ID No. 105] | + (<20% = +) | + (<20% = +)
RLASYLDKV (listed as Homo sapiens) [SEQ ID No. 133] | ++++ (>= 70% = ++++) | ++ (20%-49% = ++)
TMEM43-001 (KLLSDPNYGV; listed as Homo sapiens) | ++++ (>= 70% = ++++) | + (<20% = +)
SF3B3-001 (ELDRTPPEV; listed as Homo sapiens) | ++++ (>= 70% = ++++) | ++ (20%-49% = ++)
COG4-001 (SLVAVELEKV) | ++++ (>= 70% = ++++) | + (<20% = +)
RAD54B-001 (SLYKGLLSV; listed as Homo sapiens) | ++++ (>= 70% = ++++) | ++ (20%-49% = ++)
SLQGSIMTV (listed as Homo sapiens) [SEQ ID No. 6] | ++++ (>= 70% = ++++) | ++ (20%-49% = ++)
DROSHA-001 (AVVEFLTSV) | ++++ (>= 70% = ++++) | + (<20% = +)
DONSON-001 (VLYPHEPTAV; listed as Homo sapiens) | ++++ (>= 70% = ++++) | + (<20% = +)
SILEHQIQV (listed as Homo sapiens) [SEQ ID No. 106] | + (<20% = +) | + (<20% = +)
TLYPHTSQV (listed as Homo sapiens) [SEQ ID No. 140] | ++++ (>= 70% = ++++) | ++ (20%-49% = ++)
ILIDWLVQV (listed as Homo sapiens) [SEQ ID No. 117] | ++++ (>= 70% = ++++) | ++ (20%-49% = ++)
ATP-001 (SLHFLILYV; listed as Homo sapiens) | ++++ (>= 70% = ++++) | ++++ (>= 70% = ++++)
NLIEKSIYL (listed as Homo sapiens) [SEQ ID No. 141] | ++++ (>= 70% = ++++) | + (<20% = +)
